Laboratory results as given in patent publication US7915267B2, “Heterocyclic amide compound and use thereof” (Takeda Pharmaceutical Company Limited, priority 2005, dated 2011).

Each compound was assayed against T1, MMP-13 (Homo sapiens, UniProt P45452) (assay: MMP-13 inhibitory activity (fluorogenic substrate Cy3-PLGLK(Cy5Q)AR-NH2 enzyme assay)). Conditions: compound 1 μM; 37° C., 40 min; APMA-activated MMP-13 precursor; read-out: MMP-13 inhibitory rate (%) at 1 μM.
T1 construct: purchased GenzymeTechne
Assay type: biochemical
Protocol: To 10 μg of MMP-13 precursor (GenzymeTechne) was added 1 ml of assay buffer (50 mM Tris-HCl (pH 7.5), 10 mM CaCl2, 150 mM NaCl, 0.05% Brij-35), and 4-aminophenylmercuric acid (Sigma) was added to the final concentration of 1 mM. The MMP-13 precursor was activated by incubating at 37° C. for 2 hr.
In a 96 well black plate (Corning), to 6.3 ng/ml of MMP-13 solution (49 μl) diluted with assay buffer was added the test compound (1 μl) diluted with dimethyl sulfoxide (DMSO) and 620 nM Cy3-PLGLK(Cy5Q)AR-NH2 (50 μl, synthesized by Amersham Biosciences) in assay buffer was added to start the enzyme reaction. After incubation at 37° C. for 40 min, 500 mM EDTA solution (6 μl) was added to stop the reaction. For measurement, Farcyte (Amersham Biosciences) was used to measure at excitation wavelength 535 nm and measurement wavelength 595 nm.
T: value of well with addition of DMSO instead of test compound
C: value of well with addition of DMSO instead of test compound and addition of EDTA solution before addition of substrate solution
X: value of well with addition of test compound

| inhibition at 1 µM | SMILES |
| --- | --- |
| 97% | N#Cc1ccc2nc(C(=O)NCc3cccc(OCCSc4nc[nH]n4)c3)[nH]c(=O)c2c1 [Example 2, 6-cyano-4-oxo-N-[(3-{[2-(1H-1,2,4-triazol-3-ylthio)ethyl]oxy}phenyl)methyl]-3,4-dihydroquinazoline-2-carboxamide] |
| 98% | O=C(NCc1cccc(OCCSc2nc[nH]n2)c1)c1nc2ccc(F)cc2c(=O)[nH]1 [Example 3, 6-fluoro-4-oxo-N-[(3-{[2-(1H-1,2,4-triazol-3-ylthio)ethyl]oxy}phenyl)methyl]-3,4-dihydroquinazoline-2-carboxamide] |
| 99% | COc1ccc2nc(C(=O)NCc3cccc(OCCSc4nc[nH]n4)c3)[nH]c(=O)c2c1 [Example 4, 6-(methyloxy)-4-oxo-N-[(3-{[2-(1H-1,2,4-triazol-3-ylthio)ethyl]oxy}phenyl)methyl]-3,4-dihydroquinazoline-2-carboxamide] |
| 97% | O=C(NCc1cccc(OCCSc2nc[nH]n2)c1)c1nc2ccc(Cl)cc2c(=O)[nH]1 [Example 5, 6-chloro-4-oxo-N-[(3-{[2-(1H-1,2,4-triazol-3-ylthio)ethyl]oxy}phenyl)methyl]-3,4-dihydroquinazoline-2-carboxamide] |
| 97% | Cc1ccc2nc(C(=O)NCc3cccc(OCCSc4nc[nH]n4)c3)[nH]c(=O)c2c1 [Example 6, 6-methyl-4-oxo-N-[(3-{[2-(1H-1,2,4-triazol-3-ylthio)ethyl]oxy}phenyl)methyl]-3,4-dihydroquinazoline-2-carboxamide] |
| 97% | Nc1ccc2nc(C(=O)NCc3cccc(OCCSc4nc[nH]n4)c3)[nH]c(=O)c2c1 [Example 7, 6-amino-4-oxo-N-[(3-{[2-(1H-1,2,4-triazol-3-ylthio)ethyl]oxy}phenyl)methyl]-3,4-dihydroquinazoline-2-carboxamide] |
| 99% | O=C(NCc1cccc(OCCSc2nc[nH]n2)c1)c1nc2ccc(F)c(F)c2c(=O)[nH]1 [Example 8, 5,6-difluoro-4-oxo-N-[(3-{[2-(1H-1,2,4-triazol-3-ylthio)ethyl]oxy}phenyl)methyl]-3,4-dihydroquinazoline-2-carboxamide] |
| 98% | Cc1cccc2nc(C(=O)NCc3cccc(OCCSc4nc[nH]n4)c3)[nH]c(=O)c12 [Example 9, 5-methyl-4-oxo-N-[(3-{[2-(1H-1,2,4-triazol-3-ylthio)ethyl]oxy}phenyl)methyl]-3,4-dihydroquinazoline-2-carboxamide] |
| 98% | O=C(NCc1cccc(OCCSc2nc[nH]n2)c1)c1nc2cccc(F)c2c(=O)[nH]1 [Example 10, 5-fluoro-4-oxo-N-[(3-{[2-(1H-1,2,4-triazol-3-ylthio)ethyl]oxy}phenyl)methyl]-3,4-dihydroquinazoline-2-carboxamide] |
| 97% | O=C(NCc1cccc(OCCSc2nc[nH]n2)c1)c1nc2sccc2c(=O)[nH]1 [Example 11, 4-oxo-N-[(3-{[2-(1H-1,2,4-triazol-3-ylthio)ethyl]oxy}phenyl)methyl]-3,4-dihydrothieno[2,3-d]pyrimidine-2-carboxamide] |
| 97% | Cc1cc2c(=O)[nH]c(C(=O)NCc3cccc(OCCSc4nc[nH]n4)c3)nc2s1 [Example 13, 6-methyl-4-oxo-N-[(3-{[2-(1H-1,2,4-triazol-3-ylthio)ethyl]oxy}phenyl)methyl]-3,4-dihydrothieno[2,3-d]pyrimidine-2-carboxamide] |
| 98% | Cc1sc2nc(C(=O)NCc3cccc(OCCSc4nc[nH]n4)c3)[nH]c(=O)c2c1C [Example 14, 5,6-dimethyl-4-oxo-N-[(3-{[2-(1H-1,2,4-triazol-3-ylthio)ethyl]oxy}phenyl)methyl]-3,4-dihydrothieno[2,3-d]pyrimidine-2-carboxamide] |
| 98% | N#Cc1ccc2nc(C(=O)NCc3cccc(OCCCSc4nc[nH]n4)c3)[nH]c(=O)c2c1 [Example 15, 6-cyano-4-oxo-N-[(3-{[3-(1H-1,2,4-triazol-3-ylthio)propyl]oxy}phenyl)methyl]-3,4-dihydroquinazoline-2-carboxamide] |
| 97% | N#Cc1ccc2nc(C(=O)NCc3cccc(OCCCCSc4nc[nH]n4)c3)[nH]c(=O)c2c1 [Example 17, 6-cyano-4-oxo-N-[(3-{[4-(1H-1,2,4-triazol-3-ylthio)butyl]oxy}phenyl)methyl]-3,4-dihydroquinazoline-2-carboxamide] |
| 93% | O=C(NCc1ccnc(OCCSc2nc[nH]n2)c1)c1nc2ccccc2c(=O)[nH]1 [Example 19, 4-oxo-N-[(2-{[2-(1H-1,2,4-triazol-3-ylthio)ethyl]oxy}pyridin-4-yl)methyl]-3,4-dihydroquinazoline-2-carboxamide] |
| 89% | N#Cc1ccc2nc(C(=O)NCc3ccnc(OCCSc4nc[nH]n4)c3)[nH]c(=O)c2c1 [Example 20, 6-cyano-4-oxo-N-[(2-{[2-(1H-1,2,4-triazol-3-ylthio)ethyl]oxy}pyridin-4-yl)methyl]-3,4-dihydroquinazoline-2-carboxamide] |
| 100% | Cc1csc2nc(C(=O)NCc3ccnc(OCCSc4nc[nH]n4)c3)[nH]c(=O)c12 [Example 21, 5-methyl-4-oxo-N-[(2-{[2-(1H-1,2,4-triazol-3-ylthio)ethyl]oxy}pyridin-4-yl)methyl]-3,4-dihydrothieno[2,3-d]pyrimidine-2-carboxamide] |
| 95% | O=C(NCc1ccnc(OCCCc2nc[nH]n2)c1)c1nc2ccccc2c(=O)[nH]1 [Example 22, 4-oxo-N-[(2-{[3-(1H-1,2,4-triazol-3-yl)propyl]oxy}pyridin-4-yl)methyl]-3,4-dihydroquinazoline-2-carboxamide] |
| 96% | N#Cc1ccc2nc(C(=O)NCc3ccnc(OCCCc4nc[nH]n4)c3)[nH]c(=O)c2c1 [Example 23, 6-cyano-4-oxo-N-[(2-{[3-(1H-1,2,4-triazol-3-yl)propyl]oxy}pyridin-4-yl)methyl]-3,4-dihydroquinazoline-2-carboxamide] |
| 93% | Cc1csc2nc(C(=O)NCc3ccnc(OCCCc4nc[nH]n4)c3)[nH]c(=O)c12 [Example 24, 5-methyl-4-oxo-N-[(2-{[3-(1H-1,2,4-triazol-3-yl)propyl]oxy}pyridin-4-yl)methyl]-3,4-dihydrothieno[2,3-d]pyrimidine-2-carboxamide] |
| 97% | N#Cc1ccc2nc(C(=O)NCc3cccc(OCCOc4nc[nH]n4)c3)[nH]c(=O)c2c1 [Example 25, 6-cyano-4-oxo-N-[(3-{[2-(1H-1,2,4-triazol-3-yloxy)ethyl]oxy}phenyl)methyl]-3,4-dihydroquinazoline-2-carboxamide] |
| 96% | O=C(NCc1cccc(OCCOc2nc[nH]n2)c1)c1nc2scc(-c3ccco3)c2c(=O)[nH]1 [Example 28, 5-furan-2-yl-4-oxo-N-[(3-{[2-(1H-1,2,4-triazol-3-yloxy)ethyl]oxy}phenyl)methyl]-3,4-dihydrothieno[2,3-d]pyrimidine-2-carboxamide] |
| 98% | N#CCc1csc2nc(C(=O)NCc3cccc(OCCOc4nc[nH]n4)c3)[nH]c(=O)c12 [Example 29, 5-(cyanomethyl)-4-oxo-N-[(3-{[2-(1H-1,2,4-triazol-3-yloxy)ethyl]oxy}phenyl)methyl]-3,4-dihydrothieno[2,3-d]pyrimidine-2-carboxamide] |
